Structures can show the parent of a compound that is named as a salt. Where two headings read alike, the source gives them in different places.
Legend:
rLUJV/ZsG = test: microbe, parasite or virus in culture; assay type: cell-based, Lujo virus; details: for activity at 0.05 µM / activity at 0.5 µM / activity at 5 µM: Huh-7, read-out: Relative ZsG (%) Mean
in vitro = details: human; for CC50: CC50 (50% cell cytotoxicity concentration)
[1] = Mammarenavirus lujoense, 500 nM
[2] = Mammarenavirus lujoense, 5000 nM
[3] = Mammarenavirus lujoense, Huh-7, read-out: EC50 (concentration inhibiting ZsG expression by 50%)
[4] = read-out: EC50 (concentration inhibiting ZsG expression by 50%)

SMILES	Relative ZsG (%) Mean (rLUJV/ZsG; 50 nM) [%]	Relative ZsG (%) Mean (rLUJV/ZsG; 500 nM) [%]	Relative ZsG (%) Mean (rLUJV/ZsG; 5000 nM) [%]	Cell Viability (%) Mean (Huh7 cells; 50 nM) [%]	Cell Viability (%) Mean (Huh7 cells; 500 nM) [%]	Cell Viability (%) Mean (Huh7 cells; 5000 nM) [%]	activity at 0.05 µM (rLUJV/ZsG; Mammarenavirus lujoense, 50 nM) [%]	activity at 0.5 µM (rLUJV/ZsG; [1]) [%]	activity at 5 µM (rLUJV/ZsG; [2]) [%]	viability at 0.05 µM (in vitro) [%]	viability at 0.5 µM (in vitro) [%]	viability at 5 µM (in vitro) [%]	SI (selectivity index, CC50 divided by EC50) (rLUJV/ZsG)	EC50 (rLUJV/ZsG; [3]) [µM]	EC50 (rLUJV/ZsG; [4]) [µM]	CC50 (in vitro) [µM]
C[C@@]1(O)[C@H](O)[C@@H](CO)O[C@H]1n1ccc2c(N)ncnc21 [7-DMA]	96	95	92	98	103	113	–	–	–	–	–	–	–	–	–	–
COc1cc2ncnc(Nc3ccc(F)c(Cl)c3)c2cc1OCCCN1CCOCC1 [Gefitinib]	–	–	–	–	–	–	77	71	48	128	121	101	–	–	–	–
O=c1c(-c2ccc(O)cc2)coc2cc(O)cc(O)c12 [Genistein]	–	–	–	–	–	–	83	68	92	123	111	106	–	–	–	–
Cc1ccc(NC(=O)c2ccc(CN3CCN(C)CC3)cc2)cc1Nc1nccc(-c2cccnc2)n1 [Gleevec]	–	–	–	–	–	–	95	113	56	101	96	96	–	–	–	–
CCOC(=O)C1=C(C)NC(C)=C(C(=O)OCC)C1c1ccccc1/C=C/C(=O)OC(C)(C)C [Lacidipine]	–	–	–	–	–	–	90	90	47	138	129	98	–	–	–	–
CN(C)C(=O)C(CCN1CCC(O)(c2ccc(Cl)cc2)CC1)(c1ccccc1)c1ccccc1 [Loperamide HCL]	–	–	–	–	–	–	104	81	1	99	104	85	3.3	3.67 ± 0.99	3.67 ± 0.986	12.3 ± 3.57
Cc1c(F)cc(C(=O)NC2CC2)cc1-c1ccc(C(=O)NCC(C)(C)C)cn1 [Losmapimod]	–	–	–	–	–	–	60	70	63	113	115	114	–	–	–	–
Clc1ccc(COC(Cn2ccnc2)c2ccc(Cl)cc2Cl)c(Cl)c1 (centres unmarked) [Miconazole nitrate]	–	–	–	–	–	–	65	78	47	119	120	67	–	–	–	–
CCCCCCCCCCCCCCCCn1cc[n+](Cc2ccccc2)c1C.[I-] [NH125]	60	28	2	104	63	1	–	–	–	–	–	–	–	–	–	–
C#C[C@@]1(O)[C@H](O)[C@@H](CO)O[C@H]1n1ccc2c(N)ncnc21 [NITD008]	122	110	136	99	96	97	–	–	–	–	–	–	–	–	–	–
OC(CNCC(O)C1CCc2cc(F)ccc2O1)C1CCc2cc(F)ccc2O1 (centres unmarked) [Nebivolol]	–	–	–	–	–	–	76	58	18	110	108	76	–	–	–	–
C[C@@]1(F)[C@H](O)[C@@H](CO)O[C@H]1n1ccc(N)nc1=O [PSI-6130]	149	90	114	100	96	99	–	–	–	–	–	–	–	–	–	–
C[C@@]1(F)[C@H](O)[C@@H](CO)O[C@H]1n1ccc(=O)[nH]c1=O [PSI-6206]	141	87	128	103	96	104	–	–	–	–	–	–	–	–	–	–
CC(C)OC(=O)[C@H](C)N[P@@](=O)(OC[C@H]1O[C@@H](n2ccc(=O)[nH]c2=O)[C@](C)(F)[C@@H]1O)Oc1ccccc1 [PSI-7976]	96	80	124	94	99	107	–	–	–	–	–	–	–	–	–	–
CC(C)OC(=O)[C@H](C)N[P@](=O)(OC[C@H]1O[C@@H](n2ccc(=O)[nH]c2=O)[C@](C)(F)[C@@H]1O)Oc1ccccc1 [PSI-7977]	–	–	–	–	–	–	119	95	118	101	97	104	–	–	–	–
Cl.Fc1ccc([C@@H]2CCNC[C@H]2COc2ccc3c(c2)OCO3)cc1 [Paroxetine HCl]	93	83	48	138	145	110	–	–	–	–	–	–	–	–	–	–
CN[C@H]1CC[C@@H](c2ccc(Cl)c(Cl)c2)c2ccccc21 [Sertraline]	–	–	–	–	–	–	80	69	35	122	128	107	–	–	–	–
Cc1cn([C@H]2C=C[C@@H](CO)O2)c(=O)[nH]c1=O [Stavudine]	–	–	–	–	–	–	125	104	96	101	98	103	–	–	–	–
Clc1ccc(CSC(Cn2ccnc2)c2ccc(Cl)cc2Cl)cc1 (centres unmarked) [Sulconazole nitrate]	–	–	–	–	–	–	86	66	42	132	131	52	–	–	–	–
COc1ccc2cc1Oc1ccc(cc1)C[C@H]1c3cc(c(OC)cc3CCN1C)Oc1c(OC)c(OC)cc3c1[C@H](C2)N(C)CC3 [Tetrandrine]	–	–	–	–	–	–	95	75	2	115	95	1	–	–	–	–
CN(C)CCOc1ccc(/C(=C(/CCCl)c2ccccc2)c2ccccc2)cc1 [Toremifene citrate]	–	–	–	–	–	–	86	88	9	122	128	93	2.6	4.22 ± 0.78	4.22 ± 0.778	10.9 ± 3.14
N#Cc1cn([C@@H]2O[C@H](CO)[C@@H](O)[C@H]2O)c2ncnc(N)c12 [Toyocamycin]	–	–	–	–	–	–	69	12	7	97	64	23	–	–	–	–
COc1cc2ncnc(Nc3cccc(Cl)c3)c2cc1OC [Tyrphostin AG1478]	–	–	–	–	–	–	80	73	87	120	101	111	–	–	–	–
Cc1cn([C@H]2C[C@H](N=[N+]=[N-])[C@@H](CO)O2)c(=O)[nH]c1=O [Zidovudine]	–	–	–	–	–	–	99	88	92	97	105	93	–	–	–	–
